Assay results published in article PMC4672351, “Drug-Drug Interaction Potentials of Tyrosine Kinase Inhibitors via Inhibition of UDP-Glucuronosyltransferases” (Scientific Reports, 2015).
“Also recorded” adds a separate entry of the source.

Experiments:
[1] = target: T1, UGT2B15 (Homo sapiens, UniProt P54855); assay: Inhibition of 4-MU glucuronidation by recombinant UGT2B15; details: recombinant UGT2B15, pH 7.4, probe 4-MU
T1 sequence (P54855 24-530): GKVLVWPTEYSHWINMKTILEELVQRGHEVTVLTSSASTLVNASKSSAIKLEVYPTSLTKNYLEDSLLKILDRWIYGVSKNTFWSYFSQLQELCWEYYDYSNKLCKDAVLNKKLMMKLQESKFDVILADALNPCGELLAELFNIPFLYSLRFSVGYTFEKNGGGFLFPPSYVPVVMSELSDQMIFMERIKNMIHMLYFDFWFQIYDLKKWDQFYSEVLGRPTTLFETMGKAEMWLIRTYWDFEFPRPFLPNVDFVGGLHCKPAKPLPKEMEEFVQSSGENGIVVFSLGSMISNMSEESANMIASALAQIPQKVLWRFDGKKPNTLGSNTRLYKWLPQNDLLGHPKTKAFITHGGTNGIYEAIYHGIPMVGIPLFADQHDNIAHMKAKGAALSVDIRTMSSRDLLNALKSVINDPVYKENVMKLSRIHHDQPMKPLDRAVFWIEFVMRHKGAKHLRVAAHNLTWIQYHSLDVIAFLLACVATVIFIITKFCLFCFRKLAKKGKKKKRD

[2] = target: T2, UGT1A10 (Homo sapiens, UniProt Q9HAW8); assay: Inhibition of 4-MU glucuronidation by recombinant UGT1A10; details: recombinant UGT1A10, pH 7.4, probe 4-MU
T2 sequence (Q9HAW8 26-530): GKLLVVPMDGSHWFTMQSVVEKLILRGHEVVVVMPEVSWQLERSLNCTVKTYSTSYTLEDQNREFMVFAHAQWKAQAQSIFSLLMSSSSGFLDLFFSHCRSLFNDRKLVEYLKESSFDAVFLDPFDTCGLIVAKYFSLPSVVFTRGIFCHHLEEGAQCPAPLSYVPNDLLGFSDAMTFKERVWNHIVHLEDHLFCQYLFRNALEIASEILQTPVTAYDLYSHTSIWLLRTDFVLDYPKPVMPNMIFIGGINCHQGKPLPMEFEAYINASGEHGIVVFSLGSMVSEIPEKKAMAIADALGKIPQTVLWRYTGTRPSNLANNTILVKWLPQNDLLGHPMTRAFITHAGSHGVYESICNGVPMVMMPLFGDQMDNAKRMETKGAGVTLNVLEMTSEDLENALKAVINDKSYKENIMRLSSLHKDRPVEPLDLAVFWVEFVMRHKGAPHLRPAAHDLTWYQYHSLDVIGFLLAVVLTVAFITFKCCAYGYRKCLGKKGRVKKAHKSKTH

[3] = Estimation of in vivo TKI concentrations after repeated oral administration; design: species or system human; details: calculated from literature PK parameters
[4] = target: T3, UGT1A4 (Homo sapiens, UniProt P22310); assay: Inhibition of TFP glucuronidation by recombinant UGT1A4; details: for activity at 30 min, 100 µM: human
T3 sequence (P22310 29-534): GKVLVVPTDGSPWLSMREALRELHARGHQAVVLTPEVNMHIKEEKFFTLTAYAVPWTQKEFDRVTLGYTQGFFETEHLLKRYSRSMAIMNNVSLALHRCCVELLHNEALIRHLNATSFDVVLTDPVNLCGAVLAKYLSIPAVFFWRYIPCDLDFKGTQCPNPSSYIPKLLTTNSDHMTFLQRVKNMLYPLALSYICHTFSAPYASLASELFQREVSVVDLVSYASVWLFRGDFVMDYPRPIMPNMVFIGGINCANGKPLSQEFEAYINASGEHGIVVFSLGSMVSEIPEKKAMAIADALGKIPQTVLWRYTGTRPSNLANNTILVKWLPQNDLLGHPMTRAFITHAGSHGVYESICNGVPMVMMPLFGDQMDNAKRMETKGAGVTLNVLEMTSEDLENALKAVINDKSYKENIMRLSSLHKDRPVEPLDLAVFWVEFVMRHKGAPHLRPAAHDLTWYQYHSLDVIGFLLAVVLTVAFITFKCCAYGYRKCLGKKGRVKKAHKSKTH

[5] = target: T4, UGT1A7 (Homo sapiens, UniProt Q9HAW7); assay: Inhibition of 4-MU glucuronidation by recombinant UGT1A7; details: for activity at 30 min, 100 µM: human, recombinant UGT1A7, pH 7.4, probe 4-MU
T4 sequence (Q9HAW7 26-530): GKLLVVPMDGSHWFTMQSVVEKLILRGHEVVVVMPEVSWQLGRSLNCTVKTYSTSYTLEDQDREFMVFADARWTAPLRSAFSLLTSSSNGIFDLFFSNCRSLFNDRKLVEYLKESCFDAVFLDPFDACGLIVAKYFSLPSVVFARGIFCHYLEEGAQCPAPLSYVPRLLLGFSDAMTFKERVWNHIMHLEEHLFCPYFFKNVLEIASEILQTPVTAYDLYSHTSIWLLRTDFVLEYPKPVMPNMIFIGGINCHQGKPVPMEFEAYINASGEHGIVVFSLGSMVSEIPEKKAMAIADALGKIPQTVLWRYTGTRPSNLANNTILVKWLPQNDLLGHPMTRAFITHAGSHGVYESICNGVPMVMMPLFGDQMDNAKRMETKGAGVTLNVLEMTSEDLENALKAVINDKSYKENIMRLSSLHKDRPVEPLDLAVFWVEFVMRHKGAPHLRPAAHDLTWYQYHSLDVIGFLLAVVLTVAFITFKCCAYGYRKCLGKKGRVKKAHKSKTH

[6] = target: T5, UGT1A9 (Homo sapiens, UniProt O60656); assay: in vitro; details: recombinant UGT1A9, pH 7.4, probe 4-MU
T5 sequence (O60656 26-530): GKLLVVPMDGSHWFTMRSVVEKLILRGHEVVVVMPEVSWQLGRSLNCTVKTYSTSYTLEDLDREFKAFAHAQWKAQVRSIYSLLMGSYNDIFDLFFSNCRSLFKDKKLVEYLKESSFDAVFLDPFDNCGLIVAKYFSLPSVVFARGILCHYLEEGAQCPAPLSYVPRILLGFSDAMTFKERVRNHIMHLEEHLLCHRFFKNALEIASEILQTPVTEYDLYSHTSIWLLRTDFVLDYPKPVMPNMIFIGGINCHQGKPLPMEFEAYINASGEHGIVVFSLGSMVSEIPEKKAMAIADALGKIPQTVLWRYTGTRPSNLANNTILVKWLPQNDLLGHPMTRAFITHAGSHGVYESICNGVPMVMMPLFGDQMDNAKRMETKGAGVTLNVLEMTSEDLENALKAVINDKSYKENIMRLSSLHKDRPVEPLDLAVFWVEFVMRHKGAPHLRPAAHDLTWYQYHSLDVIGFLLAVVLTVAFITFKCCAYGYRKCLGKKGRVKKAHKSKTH

[7] = recombinant UGT1A4, pH 7.4, probe TFP (trifluoperazine)

Row | Compound | activity at 120 min, 100 µM [1] [%] | activity at 120 min, 100 µM [2] [%] | Calculated Concentrations Iav (average systemic plasma concentration) [3] [µM] | Calculated Concentrations Iin,u (maximum unbound hepatic input concentration) [3] [µM] | Calculated Concentrations Imax,u (maximum unbound systemic plasma concentration) [3] [µM] | IC50 [4] [µM] | activity at 30 min, 100 µM ([4]; pH 7.4) [%] | IC50 [5] [µM] | activity at 30 min, 100 µM [5] [%] | activity at 30 min, 100 µM [6] [%] | activity at 30 min, 100 µM [4, 7] [%] | Ki [4] [µM] | inhibition type, UGT1A4 ([4]; TFP substrate) | inhibition type, UGT1A7 ([5]; 4-MU substrate)
1 | CNC(=O)c1ccccc1Sc1ccc2c(/C=C/c3ccccn3)n[nH]c2c1 [Axitinib, axitinib] | 49.3 ± 5.2 | 55.5 ± 2.7 | 0.024 | 0.00086 | 0.00067 | 14.2 ± 3.2 | 14.9 ± 1.8 | 3.3 ± 0.7 | 25 ± 2.5 | 44.8 ± 0.2 |  |  |  | 
2 | COc1cc2c(Nc3ccc(Br)cc3F)ncnc2cc1OCC1CCN(C)CC1 [Vandetanib, vandetanib] | 79.2 ± 1.4 | 49 ± 0.4 | 1.99 | 0.23 | 0.12 |  |  | 38.9 ± 4.3 | 22.7 ± 2.7 | 14.1 ± 4.7 | 62.8 |  |  | 
3 | CS(=O)(=O)CCNCc1ccc(-c2ccc3ncnc(Nc4ccc(OCc5cccc(F)c5)c(Cl)c4)c3c2)o1 [Lapatinib, lapatinib] | 110 ± 3.1 | 73.6 ± 4.8 | 0.79 | 0.12 | 0.011 | 3.8 ± 0.7 |  |  | 37.7 ± 9.3 | 51.1 ± 7.9 | 40.7 ± 1.9 | 36.4 ± 5 | mixed | non-competitive; also recorded: noncompetitive
